Patent publication US10500286B2, “CCK2R-drug conjugates” (priority 2015, dated 2019)
Where two headings read alike, the source gives them in different places.

Key:
[1] = Body weight of mice bearing subcutaneous HEK-CCK2R tumors during treatment; format: in vivo; details: 2 μmol/kg, TIW×2 weeks
Experimental: (▪) control; (▴) EC1873; (●) EC1868; (∘) EC1947.
(§1) Female Balb/c nu/nu mice were fed ad libitum with 2918 irradiated Teklad Global 18% Rodent Diet for the duration of the experiment. HEK-CCK2R tumor cells were inoculated subcutaneously at the right flank of each mouse. Mice were dosed through the lateral tail vein under sterile conditions in a volume of 200 μL of phosphate-buffered saline (PBS).

HEK-CCK2R tumor cells = assay: Antitumor activity in HEK-CCK2R tumor model; format: in vivo, mice; details: 2 μmol/kg
Experimental: as §1
Growth of each s.c. tumor was followed by measuring the tumor two times per week. Tumors were measured in two perpendicular directions using Vernier calipers, and their volumes were calculated as 0.5×L×W^2, where L=measurement of longest axis in mm and W=measurement of axis perpendicular to L in mm.
Treatment with 2 μmol/kg of EC1947 (Sulfated CCK8-Tubulysin B SMDC), three times a week for two weeks produced maximal anti-tumor activity with 80% cures and 20% CR's. In comparison, EC1868 (CCK8-PEG3-Tubulysin B SMDC) and EC1873 (CCK8-PEG12-Tubulysin B SMDC) at the same dose and schedule produced 100% CR's and 80% CR's/20% PR's, respectively.

HEK-CCK2R cells [2] = format: cell-based; details: 2 h pulse at 37 C, chase up to 72 h, [3H]thymidine incorporation relative to untreated controls
Experimental: (§2) CCK2R-positive HEK-CCK2R cells were seeded in 12-well Falcon plates and allowed to form nearly confluent monolayers overnight in RPMI/HIFCS. Each well then received increasing concentrations of CCK2R targeted conjugates (n=4). Cells were pulsed for 2 h at 37° C., rinsed with medium, and then chased in fresh medium up to 72 h. Spent medium was aspirated and replaced with medium containing [^3H]thymidine. Following a 2 h incubation, cells were washed with PBS and then treated with 5% trichloroacetic acid. The trichloroacetic acid was aspirated and cells were solubilized in 0.25 N sodium hydroxide. Each solubilized sample were transferred to scintillation vials containing Ecolume scintillation cocktail and counted in a liquid scintillation counter. Final results were expressed as the percentage of [^3H]thymidine incorporation relative to untreated controls and IC50 values calculated using GraphPad Prism software.

HEK-CCK2R cells [3] = assay: In vitro study of conjugates versus competitor, [3H]thymidine incorporation; format: cell-based
Experimental: as §2, with “(EC1812 or EC1868)+/−10 μM of CCK2R binding competitor (Re-EC1786 or Re-EC1825).” for “(n=4).”

[4] = three times a week for two weeks

CCCC(=O)OCN(C(=O)[C@@H](NC(=O)[C@H]1CCCCN1C)C(C)CC)[C@H](C[C@@H](OC(C)=O)c1nc(C(=O)N[C@@H](Cc2ccc(O)cc2)C[C@H](C)C(=O)NNC(=O)OCCSSC[C@H](NC(=O)[C@H](CC(=O)O)NC(=O)[C@@H](N)CNC(C)=O)C(=O)NCCOCCOCCOCCC(=O)N[C@@H](CC(=O)O)C(=O)N[C@@H](Cc2ccc(O)cc2)C(=O)N[C@@H](CCSC)C(=O)NCC(=O)N[C@@H](Cc2c[nH]c3ccccc23)C(=O)N[C@@H](CCSC)C(=O)N[C@@H](CC(=O)O)C(=O)N[C@@H](Cc2ccccc2)C(N)=O)cs1)C(C)C (some centres unmarked) [EC1868]
weight loss [1]: do not induce weight loss
CR, number of animals, second figure of {PR, CR, cure} (HEK-CCK2R tumor cells; TIW×2 weeks, n=5): 5
CR's (HEK-CCK2R tumor cells; [4]): 100%
IC50 (HEK-CCK2R cells [2]): 0.2 nM
cytotoxic activity on HEK-CCK2R, in words (HEK-CCK2R cells [3]): potent, competeable cytotoxic activity

CCCC(=O)OCN(C(=O)[C@@H](NC(=O)[C@H]1CCCCN1C)C(C)CC)[C@H](C[C@@H](OC(C)=O)c1nc(C(=O)N[C@@H](Cc2ccc(O)cc2)C[C@H](C)C(=O)NNC(=O)OCCSSC[C@H](NC(=O)[C@H](CCC(=O)NC[C@@H](O)[C@H](O)[C@@H](O)[C@@H](O)CO)NC(=O)[C@H](CCC(=O)O)NC(=O)[C@H](CCC(=O)NC[C@@H](O)[C@H](O)[C@@H](O)[C@@H](O)CO)NC(=O)[C@H](CCC(=O)O)NC(=O)CCCCCCCNC(=O)c2cccc(NC(=O)N[C@@H]3CN(C4CCCCC4)c4ccccc4N(CC(=O)C(C)(C)C)C3=O)c2)C(=O)O)cs1)C(C)C (some centres unmarked) [EC1812]
cytotoxic activity on HEK-CCK2R, in words (HEK-CCK2R cells [3]): relatively inactive
IC50 (HEK-CCK2R cells [3]; + 10 μM competitor Re-EC1786, read-out: IC50 in presence of Re-EC1786): 262 nM
IC50 (HEK-CCK2R cells [3]; conjugate alone, read-out: IC50): 225 nM
competition of activity by excess Re-EC1786, in words (HEK-CCK2R cells [3]; excess Re-EC1786): not competeable

CCCC(=O)OCN(C(=O)[C@@H](NC(=O)[C@H]1CCCCN1C)C(C)CC)[C@H](C[C@@H](OC(C)=O)c1nc(C(=O)N[C@@H](Cc2ccc(O)cc2)C[C@H](C)C(=O)NNC(=O)OCSSC[C@H](NC(=O)[C@H](CC(=O)O)NC(=O)[C@@H](N)CNC(C)=O)C(=O)NCCOCCOCCC(=O)N[C@@H](CC(=O)O)C(=O)N[C@@H](Cc2ccc(OS(=O)(=O)O)cc2)C(=O)N[C@@H](CCSC)C(=O)NCC(=O)N[C@@H](Cc2c[nH]c3ccccc23)C(=O)N[C@@H](CCSC)C(=O)N[C@@H](CC(=O)O)C(=O)N[C@@H](Cc2ccccc2)C(N)=O)cs1)C(C)C (some centres unmarked) [EC1947]
weight loss [1]: do not induce weight loss
CR's (HEK-CCK2R tumor cells; [4]): 20%
cures (HEK-CCK2R tumor cells; [4]): 80%
IC50 (HEK-CCK2R cells [2]): 0.9 nM

CCCC(=O)OCN(C(=O)[C@@H](NC(=O)[C@H]1CCCCN1C)C(C)CC)[C@H](C[C@@H](OC(C)=O)c1nc(C(=O)N[C@@H](Cc2ccc(O)cc2)C[C@H](C)C(=O)NNC(=O)OCCSSC[C@H](NC(=O)[C@H](CC(=O)O)NC(=O)[C@@H](N)CNC(C)=O)C(=O)NCCOCCOCCOCCOCCOCCOCCOCCOCCOCCOCCOCCOCCC(=O)N[C@@H](CC(=O)O)C(=O)N[C@@H](Cc2ccc(O)cc2)C(=O)N[C@@H](CCSC)C(=O)NCC(=O)N[C@@H](Cc2c[nH]c3ccccc23)C(=O)N[C@@H](CCSC)C(=O)N[C@@H](CC(=O)O)C(=O)N[C@@H](Cc2ccccc2)C(N)=O)cs1)C(C)C (some centres unmarked) [EC1873]
weight loss [1]: do not induce weight loss
CR's (HEK-CCK2R tumor cells; [4]): 80%
PR's (HEK-CCK2R tumor cells; [4]): 20%
IC50 (HEK-CCK2R cells [2]): 2.8 nM
